Data: PMC11952846, “The sterol-regulating human ARV1 binds cholesterol and phospholipids through its conserved ARV1 homology domain” (The Journal of Biological Chemistry, 2025)

What was measured:
GST-ARV1-N70 = molecular target: T1, GST-ARV1-N70 (Homo sapiens, UniProt Q9H2C2); assay: Lipid overlay far western, truncation; assay type: binding; settings: compared to ARV1-N98
T1 construct: Expresses amino-terminal 70 amino acids of ARV1; made in house; host or cells: E. coli BL21 (pGEX-4T1)
T1 sequence (Q9H2C2 1-70): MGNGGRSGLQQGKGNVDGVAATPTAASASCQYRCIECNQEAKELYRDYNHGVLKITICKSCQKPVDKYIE
Procedure: (§1) Lipid overlays were blocked in TBST-BSA (100 mM Tris–HCl buffer, pH 7.5, 150 mM NaCl, 0.5% Tween 20, 3% bovine serum albumin) for 1 h and subsequently washed eight separate times with TBST for 2 min each. Overlays were incubated with 0.5 μg/ml GST-tagged or 6XHIS-tagged proteins in 3% TBST-BSA buffer containing 0.1% Triton X-100, for 1 h at room temperature and washed as above. Overlays were incubated with either anti-GST or anti-6XHIS monoclonal antibodies at a 1:1000 dilution in TBST-BSA for 1 h at room temperature followed by eight washes in TBST. Overlays were visualized using Immobilon Western Chemiluminescent horseradish peroxidase substrate and protein–lipid interaction was detected using a GE ImageQuant LAS 3000 imager.

[1] = molecular target: T2, GST-ARV1 (full-length ARV1) (Homo sapiens, UniProt Q9H2C2); assay: Lipid overlay far western; assay type: binding; settings: lipid-embedded membrane strips, incl. sphingolipid strip
T2 construct: Expresses full length ARV1; made in house; host or cells: E. coli BL21 (pGEX-4T1)
T2 sequence (Q9H2C2 1-271): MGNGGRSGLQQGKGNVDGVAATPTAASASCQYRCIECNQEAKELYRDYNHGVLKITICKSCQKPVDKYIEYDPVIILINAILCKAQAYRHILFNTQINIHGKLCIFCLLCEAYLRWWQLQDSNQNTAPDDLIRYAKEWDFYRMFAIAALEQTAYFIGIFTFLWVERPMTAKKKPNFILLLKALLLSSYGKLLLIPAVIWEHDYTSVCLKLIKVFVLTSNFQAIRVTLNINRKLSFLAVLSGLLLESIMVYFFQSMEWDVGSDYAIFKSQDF
Procedure: as §1

GST-ARV1-N98 = molecular target: T3, GST-ARV1-N98 (Homo sapiens, UniProt Q9H2C2); assay: Lipid overlay far western; assay type: binding; settings: lipid-embedded membrane strips, incl. sphingolipid strip
T3 construct: Expresses amino-terminal 98 amino acids of ARV1; made in house; host or cells: E. coli BL21 (pGEX-4T1)
T3 sequence (Q9H2C2 1-98): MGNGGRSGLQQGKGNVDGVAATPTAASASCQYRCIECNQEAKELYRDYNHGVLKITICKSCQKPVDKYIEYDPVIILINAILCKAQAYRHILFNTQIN
Procedure: as §1

GST-Annexin A2 = GST-Annexin A2 (Homo sapiens, UniProt P07355); assay: Lipid overlay far western (positive control protein); assay type: binding; settings: lipid-embedded membrane strips, incl. sphingolipid strip
Sequence of GST-Annexin A2 (P07355 whole entry): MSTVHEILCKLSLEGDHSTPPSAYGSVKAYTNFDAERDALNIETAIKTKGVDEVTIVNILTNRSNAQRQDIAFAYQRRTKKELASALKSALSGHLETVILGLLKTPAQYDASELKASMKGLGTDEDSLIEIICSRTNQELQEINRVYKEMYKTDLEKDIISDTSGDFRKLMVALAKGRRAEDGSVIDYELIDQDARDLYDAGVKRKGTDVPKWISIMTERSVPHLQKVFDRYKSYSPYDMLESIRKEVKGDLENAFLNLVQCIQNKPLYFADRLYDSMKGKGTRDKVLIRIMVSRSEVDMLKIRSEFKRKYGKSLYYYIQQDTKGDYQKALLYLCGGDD
Procedure: as §1

GST-ARV1-N98 K67A = molecular target: T4, GST-ARV1-N98 K67A (Homo sapiens, UniProt Q9H2C2, K67A); assay: Liposome binding assay, site-directed mutant; settings: PC:PL, sulfatide liposomes
T4 construct: Expresses amino-terminal 98 amino acids of ARV1; made in house; host or cells: E. coli BL21 (pGEX-4T1)
T4 sequence (Q9H2C2 1-98 K67A): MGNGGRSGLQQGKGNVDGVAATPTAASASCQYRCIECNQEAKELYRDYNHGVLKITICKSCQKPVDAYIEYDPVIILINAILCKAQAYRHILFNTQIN
Procedure: (§2) Lyophilized lipids were reconstituted in chloroform at 10 mg/ml and stored in glass tubes with Teflon tops at −20 °C until use. One milliliter of 10 mg/ml stock was dried under a stream of nitrogen in a glass tube until a lipid cake/film was formed. The lipid cake was then rehydrated in BLT rehydration buffer (5 mM Tris/HCl, pH 7.4, containing 150 mM NaCl) to a concentration of 1 mg/ml. Lipid suspensions were subjected to three freeze/thaw cycles using a dry ice ethanol/[…] water bath to encapsulate the buffer and improve liposome formation. The suspension and lipid extruder were equilibrated to temperature for 10 min and liposomes were extruded using […] polycarbonate membranes (Avestin). Liposomes were made by mixing stock lipid PL (1 mg/ml) with PC (10 mg/ml).
(§3) Sulfatide liposomes were generated as previously described ([94]). All lipids were resuspended in organic solvents as per manufacturer’s instructions. Liposomes were prepared with mixing PC:PE:cholesterol:sulfatides (1:1:1:4) and subsequently dried down by lyophilization to obtain lipid films. Lipids were hydrated in 20 mM Tris–HCL, pH 6.8, containing 100 mM NaCl at a concentration of 1 mg/ml.
(§4) PI(4)P liposomes were generated as described by Knodler et al. ([95]), with some modifications. Briefly, liposomes were generated at a lipid concentration of 10 mg/ml. Liposomes contained PC (60%), PI (30%), PE (8%), and PI(4)P (2%). Lipid solution was dried down and resuspended in liposome buffer (20 mM Hepes–HCL, pH 7.4, containing 1 mM EDTA and 50 mM potassium acetate). Liposomes were formed by sonication on ice.
(§5) Liposomes were serial diluted in floatation buffer (100 mM NaCl, 2 mM EDTA, pH 5.5) to a final concentration of 0.1 mg/ml. Nine hundred microliters of liposome solution was placed in clear ultracentrifuge tubes and mixed with 100 μl of 0.01 μg/ml of protein. The liposome/protein solution was incubated at room temperature for 1 h with occasional shaking. An initial 100 μl of liposome/protein solution (liposomes) was removed and the remaining 900 μl was centrifuged at 50,000g for 20 min at 4 °C. The pellet was resuspended in 800 μl of fresh floatation buffer, centrifuged as above, and 800 μl of supernatant was removed (wash 1). This was repeated a second time and again 800 μl of supernatant was removed (wash 2). The final pellet was resuspended in 100 μl of floatation buffer plus SDS treatment buffer (pellet). Thirty microliters of each fraction was run on a 15% SDS-PAGE gel and probed with an anti-GST monoclonal antibody at a 1:1500 dilution.

GST-ARV1-N98 C34/C37A = molecular target: T5, GST-ARV1-N98 C34/C37A (Homo sapiens, UniProt Q9H2C2, C34A/C37A); assay: Liposome binding assay, site-directed mutant; settings: PC:PL, sulfatide or PI(4)P liposomes
T5 construct: Expresses amino-terminal 98 amino acids of ARV1; made in house; host or cells: E. coli BL21 (pGEX-4T1)
T5 sequence (Q9H2C2 1-98 C34A/C37A): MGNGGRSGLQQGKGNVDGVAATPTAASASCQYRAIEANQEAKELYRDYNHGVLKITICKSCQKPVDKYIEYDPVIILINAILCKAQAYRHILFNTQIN
Procedure: as §2, §3, §4, §5

GST-ARV1-N98 N94A = molecular target: T6, GST-ARV1-N98 N94A (Homo sapiens, UniProt Q9H2C2, N94A); assay: Liposome binding assay, site-directed mutant; settings: PC:PL, sulfatide or PI(4)P liposomes
T6 construct: Expresses amino-terminal 98 amino acids of ARV1; made in house; host or cells: E. coli BL21 (pGEX-4T1)
T6 sequence (Q9H2C2 1-98 N94A): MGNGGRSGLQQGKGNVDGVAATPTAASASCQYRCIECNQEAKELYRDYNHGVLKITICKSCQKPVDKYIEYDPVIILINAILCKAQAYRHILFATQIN
Procedure: as §2, §3, §4, §5

GST-ARV1-N98 C58/C61A = molecular target: T7, GST-ARV1-N98 C58/C61A (Homo sapiens, UniProt Q9H2C2, C58A/C61A); assay: Liposome binding assay, site-directed mutant; settings: PC:PL, sulfatide or PI(4)P liposomes
T7 construct: Expresses amino-terminal 98 amino acids of ARV1; made in house; host or cells: E. coli BL21 (pGEX-4T1)
T7 sequence (Q9H2C2 1-98 C58A/C61A): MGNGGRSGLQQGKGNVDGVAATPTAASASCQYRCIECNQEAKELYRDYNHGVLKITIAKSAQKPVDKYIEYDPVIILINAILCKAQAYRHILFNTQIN
Procedure: as §2, §3, §4, §5

GST-ARV1-N98 K54/K59A = molecular target: T8, GST-ARV1-N98 K54/K59A (Homo sapiens, UniProt Q9H2C2, K54A/K59A); assay: Liposome binding assay, site-directed mutant; settings: PC:PL, sulfatide liposomes
T8 construct: Expresses amino-terminal 98 amino acids of ARV1; made in house; host or cells: E. coli BL21 (pGEX-4T1)
Procedure: as §2, §3, §4, §5

6XHIS-ARV1-N98 K54/K59A = molecular target: T9, 6XHIS-ARV1-N98 K54/K59A (Homo sapiens, UniProt Q9H2C2, K54A/K59A); assay: Lipid overlay far western, site-directed mutant; assay type: binding; settings: compared to the ARV1-N98 protein
T9 construct: Expressing amino-terminal 98 amino acids of ARV1; made in house; host or cells: E. coli BL21 (pET-28a(+))
T9 sequence (Q9H2C2 1-98 K54A/K59A): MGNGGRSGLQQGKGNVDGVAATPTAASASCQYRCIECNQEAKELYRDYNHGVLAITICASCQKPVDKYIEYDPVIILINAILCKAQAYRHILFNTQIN
Procedure: as §1

6XHIS-ARV1-N98 N94Q = molecular target: T10, 6XHIS-ARV1-N98 N94Q (Homo sapiens, UniProt Q9H2C2, N94Q); assay: Lipid overlay far western, site-directed mutant; assay type: binding; settings: compared to the ARV1-N98 protein
T10 construct: Expressing amino-terminal 98 amino acids of ARV1; made in house; host or cells: E. coli BL21 (pET-28a(+))
T10 sequence (Q9H2C2 1-98 N94Q): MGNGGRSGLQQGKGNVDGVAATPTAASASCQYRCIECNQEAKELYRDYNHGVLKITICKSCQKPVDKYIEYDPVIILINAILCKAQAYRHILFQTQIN
Procedure: as §1

6XHIS-ARV1-N98 C58/C61A = molecular target: T11, 6XHIS-ARV1-N98 C58/C61A (Homo sapiens, UniProt Q9H2C2, C58A/C61A); assay: Lipid overlay far western, site-directed mutant; assay type: binding; settings: compared to the ARV1-N98 protein
T11 construct: Expressing amino-terminal 98 amino acids of ARV1; made in house; host or cells: E. coli BL21 (pET-28a(+))
T11 sequence (Q9H2C2 1-98 C58A/C61A): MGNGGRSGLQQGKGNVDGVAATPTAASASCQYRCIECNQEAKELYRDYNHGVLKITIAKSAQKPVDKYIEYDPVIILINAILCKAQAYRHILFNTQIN
Procedure: as §1

6XHIS-ARV1-N98 K67A = molecular target: T12, 6XHIS-ARV1-N98 K67A (Homo sapiens, UniProt Q9H2C2, K67A); assay: Lipid overlay far western, site-directed mutant; assay type: binding; settings: compared to the ARV1-N98 protein
T12 construct: Expressing amino-terminal 98 amino acids of ARV1; made in house; host or cells: E. coli BL21 (pET-28a(+))
T12 sequence (Q9H2C2 1-98 K67A): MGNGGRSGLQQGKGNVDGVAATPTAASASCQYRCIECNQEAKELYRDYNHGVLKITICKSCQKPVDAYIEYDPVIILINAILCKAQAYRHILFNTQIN
Procedure: as §1

6XHIS-ARV1-N98 C34/C37A = molecular target: T13, 6XHIS-ARV1-N98 C34/C37A (Homo sapiens, UniProt Q9H2C2, C34A/C37A); assay: Lipid overlay far western, site-directed mutant; assay type: binding; settings: compared to the ARV1-N98 protein
T13 construct: Expressing amino-terminal 98 amino acids of ARV1; made in house; host or cells: E. coli BL21 (pET-28a(+))
T13 sequence (Q9H2C2 1-98 C34A/C37A): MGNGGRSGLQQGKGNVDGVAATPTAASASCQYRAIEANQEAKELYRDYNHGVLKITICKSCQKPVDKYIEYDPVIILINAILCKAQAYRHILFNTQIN
Procedure: as §1

change of lipid-protein interaction (GST-ARV1-N70): loss of interaction
lipid-protein interaction [1]: interacted
lipid-protein interaction (GST-ARV1-N98): interacted
lipid-protein interaction (GST-Annexin A2): interacted
liposome binding (GST-ARV1-N98 K67A): unable to bind
liposome binding (GST-ARV1-N98 C34/C37A): not
liposome binding (GST-ARV1-N98 N94A): very weak
liposome binding (GST-ARV1-N98 C58/C61A): did not bind
liposome binding (GST-ARV1-N98 K54/K59A): unable to bind
change of lipid-protein interaction (6XHIS-ARV1-N98 K54/K59A): abolished
change of lipid-protein interaction (6XHIS-ARV1-N98 N94Q): more strongly
change of lipid-protein interaction (6XHIS-ARV1-N98 C58/C61A): eliminated any interaction
change of lipid-protein interaction (6XHIS-ARV1-N98 K67A): weakened
change of lipid-protein interaction (6XHIS-ARV1-N98 C34/C37A): eliminated any interaction
Substance: sulfatide
